Experimental data: patent US20230416248A1, “COMPOUNDS AND USES THEREOF” (Foghorn Therapeutics Inc., priority 2020, published 2023)
pIC50: −log10 of the molar value. Like-named read-outs stand apart in the source and are kept apart here.

Columns and labels:
BRM = biological target: T1, BRM (Homo sapiens, UniProt P51531); assay: ATPase catalytic activity of BRM, ADP-Glo in vitro biochemical assay; details: for pIC50: 30 nM BRM, 400 μM ATP; for Ratio* (BRG1 IC50 (μM) divided by BRM IC50 (μM)): selectivity ratio BRG1 IC50 / BRM IC50
T1 construct: made in house; host or cells: High Five insect cells
T1 sequence (P51531 whole entry): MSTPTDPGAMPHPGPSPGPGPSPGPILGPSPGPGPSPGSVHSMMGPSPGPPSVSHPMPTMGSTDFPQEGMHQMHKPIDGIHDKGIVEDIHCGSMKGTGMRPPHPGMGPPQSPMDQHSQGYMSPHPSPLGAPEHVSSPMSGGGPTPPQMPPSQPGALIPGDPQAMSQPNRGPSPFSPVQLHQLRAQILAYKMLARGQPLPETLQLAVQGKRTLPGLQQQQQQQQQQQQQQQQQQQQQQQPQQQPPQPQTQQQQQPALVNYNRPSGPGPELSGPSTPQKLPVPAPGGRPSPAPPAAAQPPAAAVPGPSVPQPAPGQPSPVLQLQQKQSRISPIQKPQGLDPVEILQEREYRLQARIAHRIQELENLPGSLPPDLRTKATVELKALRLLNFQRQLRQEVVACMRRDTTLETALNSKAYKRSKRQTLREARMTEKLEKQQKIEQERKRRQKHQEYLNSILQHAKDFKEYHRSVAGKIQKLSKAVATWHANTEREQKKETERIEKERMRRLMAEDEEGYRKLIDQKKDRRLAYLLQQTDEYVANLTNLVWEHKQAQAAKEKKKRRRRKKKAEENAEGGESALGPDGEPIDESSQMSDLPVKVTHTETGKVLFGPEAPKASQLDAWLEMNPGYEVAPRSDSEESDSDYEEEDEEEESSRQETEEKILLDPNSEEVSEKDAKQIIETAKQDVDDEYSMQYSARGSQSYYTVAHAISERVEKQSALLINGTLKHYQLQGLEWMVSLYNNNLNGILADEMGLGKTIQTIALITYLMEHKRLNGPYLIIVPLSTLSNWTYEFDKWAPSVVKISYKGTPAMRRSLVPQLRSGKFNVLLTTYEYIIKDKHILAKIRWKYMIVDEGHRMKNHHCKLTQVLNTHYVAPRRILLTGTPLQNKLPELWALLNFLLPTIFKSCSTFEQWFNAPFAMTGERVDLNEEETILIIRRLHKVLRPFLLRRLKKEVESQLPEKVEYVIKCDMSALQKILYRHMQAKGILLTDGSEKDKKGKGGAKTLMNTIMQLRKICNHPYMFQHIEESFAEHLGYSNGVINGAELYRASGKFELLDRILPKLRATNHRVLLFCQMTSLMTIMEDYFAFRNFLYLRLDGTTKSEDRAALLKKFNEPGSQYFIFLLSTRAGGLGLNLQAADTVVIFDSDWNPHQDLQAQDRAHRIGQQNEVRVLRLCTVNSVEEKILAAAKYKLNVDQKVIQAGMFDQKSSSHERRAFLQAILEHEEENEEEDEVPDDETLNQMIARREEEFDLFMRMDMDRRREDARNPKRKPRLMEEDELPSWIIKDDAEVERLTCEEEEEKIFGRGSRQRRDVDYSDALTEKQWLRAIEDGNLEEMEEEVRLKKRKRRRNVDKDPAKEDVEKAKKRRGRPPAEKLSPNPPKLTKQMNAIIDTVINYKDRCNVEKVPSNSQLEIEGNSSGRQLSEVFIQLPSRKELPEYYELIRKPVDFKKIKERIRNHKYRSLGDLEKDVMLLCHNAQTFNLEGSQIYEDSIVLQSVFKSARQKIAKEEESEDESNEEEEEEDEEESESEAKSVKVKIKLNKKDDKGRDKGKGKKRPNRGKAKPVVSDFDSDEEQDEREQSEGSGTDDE
Outline: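 Recombinant BRM (30 nM) hydrolysed 400 μM ATP with 20 nM salmon sperm DNA in pH 8 Tris buffer containing 20 mM MgCl2, 50 mM NaCl, 0.1% Tween-20 and 1 mM DTT, 1 h at room temperature. ADP formed was quantified by ADP-Glo luminescence.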

BRG-1 = biological target: T2, BRG-1 (Homo sapiens, UniProt P51532); assay: ATPase catalytic activity of BRG-1, ADP-Glo in vitro biochemical assay; details: 30 nM BRG-1, 400 μM ATP, read-out: BRG1 IC50
T2 construct: made in house; host or cells: High Five insect cells
T2 sequence (P51532 whole entry): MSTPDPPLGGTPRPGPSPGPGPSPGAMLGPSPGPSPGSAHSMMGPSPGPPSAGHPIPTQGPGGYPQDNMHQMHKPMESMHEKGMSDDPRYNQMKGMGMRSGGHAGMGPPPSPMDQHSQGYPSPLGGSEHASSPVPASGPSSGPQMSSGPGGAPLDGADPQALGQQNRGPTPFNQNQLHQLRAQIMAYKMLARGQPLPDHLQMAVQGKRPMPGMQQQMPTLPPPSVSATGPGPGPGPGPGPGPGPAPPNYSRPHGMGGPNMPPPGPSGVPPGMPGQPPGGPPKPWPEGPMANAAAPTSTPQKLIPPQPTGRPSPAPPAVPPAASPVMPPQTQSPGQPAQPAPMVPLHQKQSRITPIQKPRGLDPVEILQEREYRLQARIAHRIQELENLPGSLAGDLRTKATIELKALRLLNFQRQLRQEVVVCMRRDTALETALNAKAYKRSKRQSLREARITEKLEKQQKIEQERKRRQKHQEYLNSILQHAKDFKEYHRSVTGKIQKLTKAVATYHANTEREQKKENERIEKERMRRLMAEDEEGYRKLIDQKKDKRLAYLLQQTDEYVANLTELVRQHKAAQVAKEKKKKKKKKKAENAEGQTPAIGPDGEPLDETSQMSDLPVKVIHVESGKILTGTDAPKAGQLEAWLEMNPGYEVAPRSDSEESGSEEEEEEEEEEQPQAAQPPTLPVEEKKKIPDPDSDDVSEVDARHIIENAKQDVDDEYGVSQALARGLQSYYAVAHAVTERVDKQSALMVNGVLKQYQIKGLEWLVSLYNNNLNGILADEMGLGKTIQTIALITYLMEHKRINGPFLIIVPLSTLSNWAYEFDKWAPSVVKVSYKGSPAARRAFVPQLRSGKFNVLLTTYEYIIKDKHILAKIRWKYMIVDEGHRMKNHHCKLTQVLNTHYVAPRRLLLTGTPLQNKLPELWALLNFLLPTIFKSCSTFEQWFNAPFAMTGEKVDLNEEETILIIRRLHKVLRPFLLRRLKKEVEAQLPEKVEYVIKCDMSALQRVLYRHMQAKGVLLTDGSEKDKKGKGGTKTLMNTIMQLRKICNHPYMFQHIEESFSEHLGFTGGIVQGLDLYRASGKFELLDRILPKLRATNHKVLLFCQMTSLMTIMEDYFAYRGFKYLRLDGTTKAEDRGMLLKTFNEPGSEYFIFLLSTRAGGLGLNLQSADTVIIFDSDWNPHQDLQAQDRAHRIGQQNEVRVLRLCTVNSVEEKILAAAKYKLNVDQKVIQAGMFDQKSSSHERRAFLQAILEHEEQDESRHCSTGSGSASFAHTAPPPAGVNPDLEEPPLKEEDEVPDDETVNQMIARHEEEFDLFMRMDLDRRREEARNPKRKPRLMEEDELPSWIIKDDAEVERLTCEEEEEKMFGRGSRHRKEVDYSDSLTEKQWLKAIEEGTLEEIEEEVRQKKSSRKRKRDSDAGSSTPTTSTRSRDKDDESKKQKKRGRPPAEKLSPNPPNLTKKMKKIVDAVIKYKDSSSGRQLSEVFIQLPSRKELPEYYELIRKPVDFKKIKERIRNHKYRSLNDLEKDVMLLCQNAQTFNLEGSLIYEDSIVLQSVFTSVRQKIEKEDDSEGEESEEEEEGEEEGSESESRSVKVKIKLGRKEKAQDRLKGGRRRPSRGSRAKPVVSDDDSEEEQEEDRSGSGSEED
Outline: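 Signal reflects ADP produced by the enzyme, quantified as luminescence after unused ATP is cleared and ADP is reconverted to ATP for the luciferase reaction; both steps run at room temperature, 40 and 60 min respectively.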

[1] = ATPase catalytic activity, ADP-Glo

Row | SMILES | pIC50 (BRM; [1]) | Ratio* (BRM; ratio of BRG1 IC50 to BRM IC50) | pIC50 (BRG-1; [1]) | pIC50 (BRM; ADP-Glo ATPase assay) | Ratio* (BRG1 IC50 (μM) divided by BRM IC50 (μM)) (BRM) | pIC50 (BRG-1; ADP-Glo ATPase assay) | Ratio* (BRM; ratio BRG1 IC50 / BRM IC50)
1 | C[C@@H]1CN(c2cccc(-c3ccc4cnc(CNC(=O)c5ccc(CC(C)(F)F)c(S(C)(=O)=O)c5)cc4n3)n2)C[C@H](C)O1 [Compound 474] | 6.64 | 20.44 | 5.33 |  |  |  | 
2 | Cc1ncc(C(=O)NCc2cc3nc(-c4cccc(N5C[C@@H](C)O[C@@H](C)C5)n4)ccc3cn2)cc1S(C)(=O)=O [Compound 107] |  |  |  | 8.25 | 9.98 | 7.25 | 
3 | C[C@@H]1CN(c2cccc(-c3ccc4cnc(CNC(=O)c5ccc6c(c5)S(=O)(=O)CCCN6C)cc4n3)n2)C[C@H](C)O1 [Compound 415] | 7.69 | 23.93 | 6.31 |  |  |  | 
4 | C[C@@H]1CN(c2cccc(-c3ccc4cnc(CNC(=O)c5cc(C6CC6)c6c(c5)S(=O)(=O)CCOC6)cc4n3)n2)C[C@H](C)O1 [Compound 75] |  |  |  | 7.46 | 19.65 | 6.17 | 
5 | C[C@H]1CN(c2cccc(-c3ccc4cnc(CNC(=O)c5ccc(C(F)F)c(S(C)(=O)=O)c5)cc4n3)n2)C[C@H](C)O1 [Compound 162] |  |  |  | 7.42 | 14.67 | 6.25 | 
6 | CS(=O)(=O)c1cc(F)cc(C(=O)NCc2cc3nc(-c4cncc(C5CC5)n4)ccc3cn2)c1 [Compound 295] |  |  |  | 6.41 | 12.98 | 5.30 | 
7 | O=C(NCc1cc2nc(N3CCCc4ncc(C5CC5)nc43)ccc2cn1)c1ccc2c(c1)S(=O)(=O)CCOC2 [Compound 785] |  |  |  | 7.07 |  | 5.88 | 15.49
8 | CCN(C[C@H](C)OC)c1cccc(-c2ccc3cnc(CNC(=O)c4ccc5c(c4)S(=O)(=O)CCOC5)cc3n2)n1 [Compound 345] | 7.82 | 16.77 | 6.60 |  |  |  | 
9 | COCCN1CCOc2c(-c3ccc4cnc(CNC(=O)c5ccc(Cl)c(S(C)(=O)=O)c5)cc4n3)cccc21 [Compound 88] |  |  |  | 7.47 | 15.63 | 6.27 | 
10 | O=C(NCc1cc2nc(N3CCOc4ccc([C@H](F)CF)nc43)ccc2cn1)c1ccc2c(c1)S(=O)(=O)CCOC2 [Compound 856] |  |  |  | 7.92 |  | 6.18 | 55.91
11 | O=C(NCc1cc2nc(N3CCCC4CCCCC43)ccc2cn1)c1ccc2c(c1)S(=O)(=O)CCOC2 (stereo not drawn) [Compound 640] | 6.21 | 7.16 | 5.36 |  |  |  | 
12 | CN(C)S(=O)(=O)c1cc(C(=O)NCc2cc3nc(-c4cncc(C5CC5)n4)ccc3cn2)ccc1Cl [Compound 288] |  |  |  | 6.71 | 17.58 | 5.46 | 
13 | COc1cnc2c(c1)CCCN2c1ccc2cnc(CNC(=O)c3ccc4c(c3)S(=O)(=O)CCOC4)cc2n1 [Compound 565] | 7.94 | 12.06 | 6.86 |  |  |  | 
14 | O=C(NCc1cc2cc(N3CCOc4cnc(C5CC5)nc43)ccc2cn1)c1ccc2c(c1)S(=O)(=O)CCOC2 [Compound 822] |  |  |  | 7.44 |  | 6.34 | 12.47
15 | COc1nc(-c2ccc3cnc(CNC(=O)c4cc(F)c5c(c4)S(=O)(=O)[C@@H](C)COC5)cc3n2)ccc1C(F)F [Compound 530] | 7.71 | 11.19 | 6.66 |  |  |  | 
16 | CCOc1nc(-c2ccc3cnc(CNC(=O)c4ccc5c(c4)S(=O)(=O)CCOC5)cc3n2)ccc1C [Compound 501] | 8.00 | 13.59 | 6.87 |  |  |  | 
17 | COc1nc(-c2ccc3cnc(CNC(=O)c4ccc5c(c4)S(=O)(=O)[C@@H](C)COC5)cc3n2)ccc1C(F)F [Compound 519] | 7.88 | 10.89 | 6.84 |  |  |  | 
18 | CO[C@H](C)CN(C)c1cccc(-c2ccc3cnc(CNC(=O)c4ccc5c(c4)S(=O)(=O)CCOC5)cc3n2)n1 [Compound 55] |  |  |  | 7.60 | 9.45 | 6.62 | 

Row | SMILES | pIC50 (BRM; [1]) | Ratio* (BRM; ratio of BRG1 IC50 to BRM IC50) | pIC50 (BRG-1; [1]) | pIC50 (BRM; ADP-Glo ATPase assay) | Ratio* (BRG1 IC50 (μM) divided by BRM IC50 (μM)) (BRM) | pIC50 (BRG-1; ADP-Glo ATPase assay) | Ratio* (BRM; ratio BRG1 IC50 / BRM IC50)
19 | O=C(NCc1cc2nc(N3CCCc4ccc(OC(F)F)nc43)ccc2cn1)c1ccc2c(c1)S(=O)(=O)CCOC2 [Compound 643] | 6.97 | 8.21 | 6.05 |  |  |  | 
20 | COCCc1ccc(C(=O)NCc2cc3nc(-c4cncc(C5CC5)n4)ccc3cn2)cc1S(C)(=O)=O [Compound 207] |  |  |  | 6.39 | 12.29 | 5.30 | 
21 | C[C@@H]1CN(c2cccc(-c3ccc4cnc(CNC(=O)c5cc(F)c6c(c5)S(=O)(=O)CC[C@H](C)O6)cc4n3)n2)C[C@H](C)O1 [Compound 495] | 7.20 | 15.54 | 6.01 |  |  |  | 
22 | O=C(NCc1cc2nc(-c3ccc(Cl)c(OC(F)F)n3)ccc2cn1)c1ccc2c(c1)S(=O)(=O)CCOC2 [Compound 327] | 7.72 | 15.15 | 6.54 |  |  |  | 
23 | CN1CC[C@H](Oc2cccc(-c3ccc4cnc(CNC(=O)c5ccc6c(c5)S(=O)(=O)CCOC6)cc4n3)n2)C1 [Compound 342] | 6.55 | 15.24 | 5.36 |  |  |  | 
24 | C[C@@H]1CN(c2nccc(-c3ccc4cnc(CNC(=O)c5ccc(C(F)F)c(S(C)(=O)=O)c5)cc4n3)n2)C[C@H](C)O1 [Compound 157] |  |  |  | 7.84 | 21.99 | 6.50 | 
25 | COCCN(C)c1cccc(-c2ccc3cnc(CNC(=O)c4ccc5c(c4)S(=O)(=O)CCOC5)cc3n2)c1OC [Compound 347] | 5.91 | 3.03 | 5.43 |  |  |  | 
26 | O=C(NCc1cc2cc(-c3cccc(N4CCC4)n3)ccc2cn1)c1ccc2c(c1)S(=O)(=O)CCOC2 [Compound 271] |  |  |  | 7.79 | 12.70 | 6.69 | 
27 | O=C(NCc1cc2nc(N3CCOc4cc(F)cnc43)ccc2cn1)c1ccc2c(c1)S(=O)(=O)CCOC2 [Compound 737] |  |  |  | 7.98 |  | 6.64 | 21.91
28 | CN(C)c1cccc(-c2ccc3cnc(CNC(=O)c4cc(F)c5c(c4)S(=O)(=O)CCOC5)cc3n2)n1 [Compound 284] |  |  |  | 7.92 | 14.69 | 6.75 | 
29 | CN(c1cnc2c(c1)OCCN2c1ccc2cnc(CNC(=O)c3ccc4c(c3)S(=O)(=O)CCOC4)cc2n1)C1CC1 [Compound 782] |  |  |  | 8.06 |  | 7.36 | 4.99
30 | O=C(NCc1cc2nc(-c3cccc(N4CC[C@@H]5C[C@@H]5C4)n3)ccc2cn1)c1ccc2c(c1)S(=O)(=O)CCOC2 [Compound 321] | 7.80 | 12.19 | 6.71 |  |  |  | 
31 | CN(C)c1cnc2c(c1)CCCN2c1ccc2cnc(CNC(=O)c3ccc4c(c3)S(=O)(=O)CCOC4)cc2n1 [Compound 441] | 7.93 | 8.52 | 7.00 |  |  |  | 
32 | C[C@@H]1CN(c2cccc(-c3ccc4cnc(CNC(=O)c5ccc(C(F)F)c(S(C)(=O)=O)c5)cc4n3)n2)C[C@H](C)O1 [Compound 206] |  |  |  | 8.10 | 13.71 | 6.96 | 
33 | Cc1ccc(C(=O)NCc2cc3nc(-c4cncc(C5CC5)n4)ccc3cn2)cc1S(=O)(=O)C(C)C [Compound 279] |  |  |  | 6.28 | 9.45 | 5.30 | 
34 | CO[C@@H]1C[C@@H]1N(C)c1cccc(-c2ccc3cnc(CNC(=O)c4ccc5c(c4)S(=O)(=O)[C@@H](C)COC5)cc3n2)n1 [Compound 668] | 8.08 | 8.70 | 7.13 |  |  |  | 
35 | CCO[C@H]1CCS(=O)(=O)c2cc(C(=O)NCc3cc4nc(-c5cccc(N6C[C@@H](C)O[C@@H](C)C6)n5)ccc4cn3)ccc2C1 [Compound 482] | 7.64 | 10.09 | 6.63 |  |  |  | 
36 | C[C@@H]1CN(c2cccc(-c3ccc4cnc(CNC(=O)c5ccc6c(c5)S(=O)(=O)[C@H](C)CC6)cc4n3)n2)C[C@H](C)O1 [Compound 362] | 7.77 | 14.06 | 6.62 |  |  |  | 
